In patent US6559101B2, “N- (5, 7-dimethoxy [1, 2, 4] triazolo [1, 5-a] pyrimidin-2-yl) arylsulfonamide compounds and their use as herbicides” (Dow AgroSciences LLC, priority 2000, dated 2003):

Columns and labels:
Assay type in all cases: in vivo
[1] = tested on: Rox orange sorghum (Sorghum bicolor); experiment: Postemergence herbicidal activity; details: 7.8 ppm; scored after 2 weeks; 0 no injury, 100 complete kill
Method in brief: (§1)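 Foliar spray, 1st/2nd true-leaf stage; carrier acetone/water/iPrOH/DMSO + crop oil conc. + surfactant; 1 ppm ≈ 1 g/ha. Readout: visual % injury vs untreated at 2 wk (0 = none, 100 = kill).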

[2] = tested on: blackgrass (Alopecurus myosuroides); experiment: Postemergence herbicidal activity; details: 7.8 ppm; scored after 2 weeks; 0 no injury, 100 complete kill
Method in brief: as §1

[3] = tested on: chickweed (Stellaria media); experiment: Postemergence herbicidal activity; details: 7.8 ppm; scored after 2 weeks; 0 no injury, 100 complete kill
Method in brief: as §1

[4] = tested on: cocklebur (Xanthium strumarium); experiment: Postemergence herbicidal activity; details: 7.8 ppm; scored after 2 weeks; 0 no injury, 100 complete kill
Method in brief: as §1

[5] = tested on: giant foxtail (Setaria faberi); experiment: Postemergence herbicidal activity; details: 7.8 ppm; scored after 2 weeks; 0 no injury, 100 complete kill
Method in brief: as §1

[6] = tested on: lambsquarters (Chenopodium album); experiment: Postemergence herbicidal activity; details: 7.8 ppm; scored after 2 weeks; 0 no injury, 100 complete kill
Method in brief: as §1

[7] = tested on: pigweed (Amaranthus retroflexus); experiment: Postemergence herbicidal activity; details: 7.8 ppm; scored after 2 weeks; 0 no injury, 100 complete kill
Method in brief: as §1

[8] = tested on: velvetleaf (Abutilion theophrasti); experiment: Postemergence herbicidal activity; details: 7.8 ppm; scored after 2 weeks; 0 no injury, 100 complete kill
Method in brief: as §1

viola (Viola tricolor) = experiment: Postemergence herbicidal activity; details: 7.8 ppm; scored after 2 weeks; 0 no injury, 100 complete kill
Method in brief: as §1

[9] = tested on: wild buckwheat (Polygonum convolvulus); experiment: Postemergence herbicidal activity; details: 7.8 ppm; scored after 2 weeks; 0 no injury, 100 complete kill
Method in brief: as §1

wild oats (Avena fatua) [10] = experiment: Postemergence herbicidal activity; details: 7.8 ppm; scored after 2 weeks; 0 no injury, 100 complete kill
Method in brief: as §1

[11] = tested on: Rox orange sorghum (Sorghum bicolor); experiment: Preemergence herbicidal activity; details: 17.5 g/Ha; scored after 3 weeks; 0 no injury, 100 complete kill or no germination
Method in brief: (§2)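 Test compounds are sprayed pre-emergence onto soil in seeded pots (highest rate 4.48 kg/ha) using an aqueous surfactant carrier, and the plants are grown in a greenhouse for 3 weeks. Injury is then rated by eye, 0 to 100%, against untreated plants.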

[12] = tested on: barnyardgrass (Echinochloa crus-galli); experiment: Preemergence herbicidal activity; details: 17.5 g/Ha; scored after 3 weeks; 0 no injury, 100 complete kill or no germination
Method in brief: as §2

[13] = tested on: blackgrass (Alopecurus myosuroides); experiment: Preemergence herbicidal activity; details: 17.5 g/Ha; scored after 3 weeks; 0 no injury, 100 complete kill or no germination
Method in brief: as §2

[14] = tested on: cocklebur (Xanthium strumarium); experiment: Preemergence herbicidal activity; details: 17.5 g/Ha; scored after 3 weeks; 0 no injury, 100 complete kill or no germination
Method in brief: as §2

[15] = tested on: crabgrass (Digitaria sanguinalis); experiment: Preemergence herbicidal activity; details: 17.5 g/Ha; scored after 3 weeks; 0 no injury, 100 complete kill or no germination
Method in brief: as §2

[16] = tested on: giant foxtail (Setaria faberi); experiment: Preemergence herbicidal activity; details: 17.5 g/Ha; scored after 3 weeks; 0 no injury, 100 complete kill or no germination
Method in brief: as §2

[17] = tested on: lambsquarters (Chenopodium album); experiment: Preemergence herbicidal activity; details: 17.5 g/Ha; scored after 3 weeks; 0 no injury, 100 complete kill or no germination
Method in brief: as §2

[18] = tested on: morningglory (Ipomoea hederacea); experiment: Preemergence herbicidal activity; details: 17.5 g/Ha; scored after 3 weeks; 0 no injury, 100 complete kill or no germination
Method in brief: as §2

[19] = tested on: pigweed (Amaranthus retroflexus); experiment: Preemergence herbicidal activity; details: 17.5 g/Ha; scored after 3 weeks; 0 no injury, 100 complete kill or no germination
Method in brief: as §2

[20] = tested on: velvetleaf (Abutilion theophrasti); experiment: Preemergence herbicidal activity; details: 17.5 g/Ha; scored after 3 weeks; 0 no injury, 100 complete kill or no germination
Method in brief: as §2

wild oats (Avena fatua) [21] = experiment: Preemergence herbicidal activity; details: 17.5 g/Ha; scored after 3 weeks; 0 no injury, 100 complete kill or no germination
Method in brief: as §2

[22] = tested on: wild poinsettia (Euphorbia heterophylla); experiment: Preemergence herbicidal activity; details: 17.5 g/Ha; scored after 3 weeks; 0 no injury, 100 complete kill or no germination
Method in brief: as §2

[23] = tested on: Spring wheat (Triticum aestivum); experiment: Postemergence herbicidal activity with safener, crop injury; details: 25 g/ha postemergence; 3 weeks after application; 0 no injury, 100 complete kill
Source text: (§3) Pre-formulated test materials utilized were as follows: Compound 15 as a 30 g ai/L emulsified concentrate (3% Compound 15, 3% Agrimer AL-10 (copolymer of 1-ethenyl-2-pyrolidinone and 1-butene), 94% N-methyl pyrrolidone w/w) and cloquintocet-mexyl (CQC) as a 120 g ai/L emulsified concentrate (12% cloquintocet-mexyl, 2.5% Toximul D, 2.5% Toximul H, [blends of calcium dodecylbenzenesulfonate plus castor oil ehtoxylates, nonylphenol ethoxylates and EO-PO block copolymers] 83% aromatic 200 w/w). Diluted stock solutions of formulated materials were made in distilled water. Final spray solutions were made by adding specified aliquots of diluted stock materials to a solution containing distilled water and X-77 surfactant at 0.25% v/v. The solutions were applied using a mechanized track-sprayer calibrated to deliver 187 1/ha carrier volume with a nozzle (flat fan) pressure of 276 kilopascals.
(§4) Assessment of weed control and crop injury was taken a 3 weeks after application. Plant injury was visually assessed on a scale of 0 to 100% with 0 equal to no injury and 100 equal to complete kill.

[24] = tested on: Green foxtail (Setaria viridis); experiment: Postemergence herbicidal activity with safener; details: 25 g/ha postemergence; 0 no injury, 100 complete kill
Source text: as §3, §4

[25] = tested on: Italian ryegrass (Lolium multiflorum); experiment: Postemergence herbicidal activity with safener; details: 25 g/ha postemergence; 0 no injury, 100 complete kill
Source text: as §3, §4

Wild oat (Avena fatua) = experiment: Postemergence herbicidal activity with safener; details: 25 g/ha postemergence; 0 no injury, 100 complete kill
Source text: as §3, §4

[26] = tested on: Windgrass (Apera spica-venta); experiment: Postemergence herbicidal activity with safener; details: 25 g/ha postemergence; 0 no injury, 100 complete kill
Source text: as §3, §4

[27] = tested on: blackgrass (Alopecurus myosuroides); experiment: Postemergence herbicidal activity with safener; details: 25 g/ha postemergence; 0 no injury, 100 complete kill
Source text: as §3, §4

COc1cc(OC)n2nc(NS(=O)(=O)c3c(C(F)(F)F)ccnc3OC)nc2n1 [Compound 15, N-(5,7-dimethoxy[1,2,4]triazolo[1,5-a]pyrimidin-2-yl)-2-methoxy-4-(trifluoromethyl)-3-pyridinesulfonamide]
98%: Postemergence herbicidal activity SORBI [1] | Postemergence herbicidal activity STEME [3] | Postemergence herbicidal activity AMARE [7] | Postemergence herbicidal activity POLCO [9] | Postemergence herbicidal activity AVEFA (wild oats (Avena fatua) [10]) | Preemergence herbicidal activity ECHCG [12] | Preemergence herbicidal activity DIGSA [15] | Preemergence herbicidal activity AVEFA (wild oats (Avena fatua) [21]) | Preemergence herbicidal activity EPHHL [22]
100%: Postemergence herbicidal activity SETFA [5] | Preemergence herbicidal activity SORBI [11] | Preemergence herbicidal activity ALOMY [13] | Preemergence herbicidal activity SETFA [16] | Preemergence herbicidal activity CHEAL [17] | % Control 3 Weeks After Application APSEV [26]
99%: Postemergence herbicidal activity ALOMY [2] | % Control 3 Weeks After Application SETVI [24] | % Control 3 Weeks After Application LOLMU [25] | % Control 3 Weeks After Application AVEFA (Wild oat (Avena fatua)) | % Control 3 Weeks After Application ALOMY [27]
90%: Postemergence herbicidal activity XANST [4]
95%: Postemergence herbicidal activity CHEAL [6] | Postemergence herbicidal activity ABUTH [8] | Postemergence herbicidal activity VIOTR (viola (Viola tricolor)) | Preemergence herbicidal activity XANST [14] | Preemergence herbicidal activity IPOHE [18] | Preemergence herbicidal activity ABUTH [20]
70%: Preemergence herbicidal activity AMARE [19]
47%: % Injury TRZAS [23]
